In publication PMC6934184, “Selective DNA-PKcs inhibition extends the therapeutic index of localized radiotherapy and chemotherapy” (The Journal of Clinical Investigation, 2019):

Target: T1, MAP3K5 (ASK1) (Homo sapiens, UniProt Q99683)
T1 construct: purchased Thermo Fisher Scientific (Life Technologies) SelectScreen
Assay: SelectScreen LanthaScreen
Type: binding
Conditions: read-out: % displacement
Outline: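 NU5455 was profiled across the SelectScreen Broad panel of kinase activity and binding assays. Z'LYTE reactions such as CSF1R ran at apparent Km ATP, while the Adapta CAMK1 assay used ATP listed as 10. Values are given as percent.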

T1 sequence (Q99683 whole entry): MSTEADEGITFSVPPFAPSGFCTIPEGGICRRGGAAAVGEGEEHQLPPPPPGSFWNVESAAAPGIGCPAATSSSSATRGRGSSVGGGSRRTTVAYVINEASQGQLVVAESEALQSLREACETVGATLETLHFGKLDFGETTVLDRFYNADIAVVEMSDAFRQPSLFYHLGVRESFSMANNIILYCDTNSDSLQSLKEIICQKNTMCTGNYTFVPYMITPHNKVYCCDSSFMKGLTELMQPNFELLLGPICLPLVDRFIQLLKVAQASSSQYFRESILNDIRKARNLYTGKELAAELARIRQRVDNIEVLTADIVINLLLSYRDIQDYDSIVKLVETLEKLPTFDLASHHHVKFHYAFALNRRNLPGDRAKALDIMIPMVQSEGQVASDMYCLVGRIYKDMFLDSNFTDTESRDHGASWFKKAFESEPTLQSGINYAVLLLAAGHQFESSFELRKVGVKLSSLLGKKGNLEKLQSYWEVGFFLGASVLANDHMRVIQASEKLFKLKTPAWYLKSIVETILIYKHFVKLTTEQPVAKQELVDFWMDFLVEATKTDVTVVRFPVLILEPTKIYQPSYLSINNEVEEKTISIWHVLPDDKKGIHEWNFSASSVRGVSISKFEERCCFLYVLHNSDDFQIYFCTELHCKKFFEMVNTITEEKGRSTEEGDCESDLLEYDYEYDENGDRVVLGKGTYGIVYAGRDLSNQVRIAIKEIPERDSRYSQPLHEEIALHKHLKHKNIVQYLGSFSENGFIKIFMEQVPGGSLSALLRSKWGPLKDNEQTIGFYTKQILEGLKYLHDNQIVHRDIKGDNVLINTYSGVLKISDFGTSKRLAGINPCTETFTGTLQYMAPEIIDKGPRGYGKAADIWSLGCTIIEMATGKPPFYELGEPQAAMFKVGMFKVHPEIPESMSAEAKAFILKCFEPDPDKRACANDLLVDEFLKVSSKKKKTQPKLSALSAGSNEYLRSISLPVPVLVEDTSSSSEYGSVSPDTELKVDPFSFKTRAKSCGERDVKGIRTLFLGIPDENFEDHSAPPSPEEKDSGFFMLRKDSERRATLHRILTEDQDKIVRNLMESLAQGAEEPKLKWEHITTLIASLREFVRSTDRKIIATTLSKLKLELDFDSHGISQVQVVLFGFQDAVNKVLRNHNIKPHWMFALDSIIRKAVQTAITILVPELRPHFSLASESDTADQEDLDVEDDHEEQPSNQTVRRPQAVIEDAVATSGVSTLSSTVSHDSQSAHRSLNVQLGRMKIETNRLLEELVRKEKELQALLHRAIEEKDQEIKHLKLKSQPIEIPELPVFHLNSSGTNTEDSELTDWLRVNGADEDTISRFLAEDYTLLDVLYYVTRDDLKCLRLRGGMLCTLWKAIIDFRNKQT

For `CN(C(=O)CN1CCOCC1)c1ccc2sc3c(-c4cccc5c(=O)cc(N6CC7CCC(C6)O7)oc45)cccc3c2c1` [NU5455], the inhibition at 1 µM was 2.3%.
